Assays:
[1] = system: uterus of ovariectomized mice; test: Mouse uterine estrogenicity: uterine wet weight; type: in vivo; settings: dose of 10 ng; subcutaneous; 18 h
ERβ-GFP [2] = settings: COS7 cells; 1 nM E2 or 1 μM AB-1; 15 min
ERβ-GFP [3] = system: ERβ-GFP
FOXO3a-GFP = test: FOXO3a translocation in MCF-7 cells; settings: E2 10 nM, G-1 100 nM, AB-1 1 μM, EGF 50 ng/mL
ERβ-GFP [4] = settings: COS7 cells; 1 nM E2 or 1 μM AB-1
GPER over ERα = settings: ref Dennis et al., 2011; cited from earlier work
ERα = target: T1, ERα (Homo sapiens, UniProt P03372); settings: MCF-7 cells; 24 h; Western blot
T1 sequence (P03372 1-595): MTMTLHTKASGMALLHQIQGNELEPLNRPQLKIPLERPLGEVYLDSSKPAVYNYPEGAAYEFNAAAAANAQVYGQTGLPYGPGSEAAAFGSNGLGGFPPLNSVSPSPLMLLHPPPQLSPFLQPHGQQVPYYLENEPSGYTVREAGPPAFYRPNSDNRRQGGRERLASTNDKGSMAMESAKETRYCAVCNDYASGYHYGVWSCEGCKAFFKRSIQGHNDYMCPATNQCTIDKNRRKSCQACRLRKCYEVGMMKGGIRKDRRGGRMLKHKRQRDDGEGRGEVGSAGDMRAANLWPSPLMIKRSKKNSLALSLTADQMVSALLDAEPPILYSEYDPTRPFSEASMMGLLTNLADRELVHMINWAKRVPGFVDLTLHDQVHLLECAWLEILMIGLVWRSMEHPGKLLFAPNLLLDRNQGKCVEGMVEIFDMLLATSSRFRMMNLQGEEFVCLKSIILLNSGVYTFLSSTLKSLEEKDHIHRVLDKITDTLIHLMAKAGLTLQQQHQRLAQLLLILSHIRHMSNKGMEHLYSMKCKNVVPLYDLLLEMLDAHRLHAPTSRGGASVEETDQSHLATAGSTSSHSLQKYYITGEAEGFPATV

ERα over ERβ = settings: ref Stauffer et al., 2000; cited from earlier work

C[C@]12CC[C@@H]3c4ccc(O)cc4CC[C@H]3[C@@H]1CC[C@@H]2O [E2, 17β-estradiol]
Imbibition response [1]: strong imbibition response | PI3K activation (nuclear translocation of PH-mRFP1), ERβ (ERβ-GFP [2]): induced strong nuclear localization of the PH-mRFP1 reporter | Block of E2-Alexa633 binding to ERβ-GFP (confocal) (ERβ-GFP [3]): blocked binding of E2-Alexa633 | FOXO3a translocation from nucleus to cytoplasm (FOXO3a-GFP): stimulated cytosolic translocation | Induction of calcium mobilization, ERβ (ERβ-GFP [4]): induced rapid calcium mobilization

CC(=O)c1ccc2c(c1)[C@@H]1C=CC[C@@H]1[C@H](c1cc3c(cc1Br)OCO3)N2 [G-1]
Selectivity for GPER over ERα (GPER over ERα): > 10^5 fold | FOXO3a translocation from nucleus to cytoplasm (FOXO3a-GFP): stimulated cytosolic translocation

C[C@]12CC[C@@H]3c4ccc(O)cc4C[C@@H](CCCCCCCCC[S+]([O-])CCCC(F)(F)C(F)(F)F)[C@H]3[C@@H]1CC[C@@H]2O (stereo partly shown) [ICI182,780]
Effect on ERα levels (ERα): potently decreased

CCCc1c(-c2ccc(O)cc2)nn(-c2ccc(O)cc2)c1-c1ccc(O)cc1 [PPT]
Selectivity for ERα over ERβ (ERα over ERβ): about 400 fold

EGF: growth factor that stimulates the PI3K pathway (NSDSECPLSHDGYCLHDGVCMYIEALDKYACNCVVGYIGERCQYRDLKWWELR; UniProt P01133 971-1023, looked up)
FOXO3a translocation from nucleus to cytoplasm (FOXO3a-GFP): translocated from the nucleus to the cytoplasm

— publication PMC6925632 (Cell chemical biology, 2019)
